For one data set, the target named is T1, CB1 (h) (Homo sapiens, UniProt P21554).
T1 construct: purchased Eurofins Cerep (SafetyScreen44), recognised from the panel format
In words: In vitro CEREP profiling, CB1 (h) (agonist radioligand). Format: binding. Conditions: test compound 10 uM. The source says: (§1) Supplement media-1.zip/Safety_Panel_Profile.csv, table | column: perc_inhibition

For the next data set, the target named is T2, 5-HT2A (h) (Homo sapiens, UniProt P28223).
T2 construct: purchased Eurofins Cerep (SafetyScreen44), recognised from the panel format
T2 sequence (P28223 whole entry): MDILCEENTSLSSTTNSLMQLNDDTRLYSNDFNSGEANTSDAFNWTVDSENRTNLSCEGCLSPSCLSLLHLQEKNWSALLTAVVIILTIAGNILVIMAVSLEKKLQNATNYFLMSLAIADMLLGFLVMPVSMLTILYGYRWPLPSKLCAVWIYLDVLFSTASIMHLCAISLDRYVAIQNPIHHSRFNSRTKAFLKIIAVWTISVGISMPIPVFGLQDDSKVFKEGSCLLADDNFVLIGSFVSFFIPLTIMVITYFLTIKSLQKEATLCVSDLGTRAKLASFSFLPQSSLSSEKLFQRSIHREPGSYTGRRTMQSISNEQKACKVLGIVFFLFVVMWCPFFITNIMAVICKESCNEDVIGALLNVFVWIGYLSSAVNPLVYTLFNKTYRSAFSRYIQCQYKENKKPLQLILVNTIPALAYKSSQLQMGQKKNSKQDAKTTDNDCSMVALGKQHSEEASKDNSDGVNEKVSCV
The data set is described as follows: In vitro CEREP profiling, 5-HT2A (h) (agonist radioligand). Format: binding. Conditions: test compound concentration 10 uM.
Text: as §1

Data set [1] concerns Ca2+ channel (L, dihydropyridine site). The data set is described as follows: In vitro CEREP profiling, Ca2+ channel (L, dihydropyridine site) (antagonist radioligand). Format: binding. The following applies: test compound concentration 10 uM.
Text: as §1

Data set [2] addresses T3, N neuronal alpha4beta2 (h) (Homo sapiens, UniProt P17787+P43681).
T3 construct: purchased Eurofins Cerep (SafetyScreen44), recognised from the panel format
In words: In vitro CEREP profiling, N neuronal alpha4beta2 (h) (agonist radioligand). Format: binding. Conditions: test compound concentration 10 uM.
Text: as §1

The next data set deals with T4, 5-HT2B (h) (Homo sapiens, UniProt P41595).
T4 construct: purchased Eurofins Cerep (SafetyScreen44), recognised from the panel format
T4 sequence (P41595 whole entry): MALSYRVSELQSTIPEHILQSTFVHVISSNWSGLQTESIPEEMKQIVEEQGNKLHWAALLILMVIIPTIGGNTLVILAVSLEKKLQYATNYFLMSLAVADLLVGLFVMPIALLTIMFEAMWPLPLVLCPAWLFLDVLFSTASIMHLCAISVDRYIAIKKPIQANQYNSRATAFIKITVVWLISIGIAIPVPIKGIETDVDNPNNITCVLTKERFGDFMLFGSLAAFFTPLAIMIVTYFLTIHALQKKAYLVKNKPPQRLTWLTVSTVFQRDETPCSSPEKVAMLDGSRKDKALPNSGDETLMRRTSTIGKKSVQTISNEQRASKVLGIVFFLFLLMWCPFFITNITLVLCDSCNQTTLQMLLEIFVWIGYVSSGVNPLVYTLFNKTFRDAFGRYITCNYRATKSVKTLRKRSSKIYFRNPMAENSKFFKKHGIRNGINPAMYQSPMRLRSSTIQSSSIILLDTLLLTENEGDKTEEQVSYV
The data set is described as follows: In vitro CEREP profiling, 5-HT2B (h) (agonist radioligand). It counts as binding. Conditions: test compound concentration 10 uM.
Text: as §1

The next data set addresses T5, 5-HT3 (h) (Homo sapiens, UniProt P46098).
T5 construct: purchased Eurofins Cerep (SafetyScreen44), recognised from the panel format
T5 sequence (P46098 24-478): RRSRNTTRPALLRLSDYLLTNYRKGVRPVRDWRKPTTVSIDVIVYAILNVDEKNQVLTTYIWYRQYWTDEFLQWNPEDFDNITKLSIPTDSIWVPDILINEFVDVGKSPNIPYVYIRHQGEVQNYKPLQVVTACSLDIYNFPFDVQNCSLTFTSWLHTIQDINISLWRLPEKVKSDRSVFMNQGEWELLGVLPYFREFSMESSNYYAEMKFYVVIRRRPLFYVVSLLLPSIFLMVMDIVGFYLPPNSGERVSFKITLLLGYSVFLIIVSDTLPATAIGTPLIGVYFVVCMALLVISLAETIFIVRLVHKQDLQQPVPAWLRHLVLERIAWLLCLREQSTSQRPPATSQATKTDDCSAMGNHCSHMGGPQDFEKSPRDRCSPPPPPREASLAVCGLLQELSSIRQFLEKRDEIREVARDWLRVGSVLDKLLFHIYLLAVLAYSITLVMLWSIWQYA
The data set is described as follows: In vitro CEREP profiling, 5-HT3 (h) (antagonist radioligand). Format: binding. The following applies: test compound concentration 10 uM.
Text: as §1

Another data set deals with T6, alpha2A (h) (Homo sapiens, UniProt P08913).
T6 construct: purchased Eurofins Cerep (SafetyScreen44), recognised from the panel format
T6 sequence (P08913 1-465): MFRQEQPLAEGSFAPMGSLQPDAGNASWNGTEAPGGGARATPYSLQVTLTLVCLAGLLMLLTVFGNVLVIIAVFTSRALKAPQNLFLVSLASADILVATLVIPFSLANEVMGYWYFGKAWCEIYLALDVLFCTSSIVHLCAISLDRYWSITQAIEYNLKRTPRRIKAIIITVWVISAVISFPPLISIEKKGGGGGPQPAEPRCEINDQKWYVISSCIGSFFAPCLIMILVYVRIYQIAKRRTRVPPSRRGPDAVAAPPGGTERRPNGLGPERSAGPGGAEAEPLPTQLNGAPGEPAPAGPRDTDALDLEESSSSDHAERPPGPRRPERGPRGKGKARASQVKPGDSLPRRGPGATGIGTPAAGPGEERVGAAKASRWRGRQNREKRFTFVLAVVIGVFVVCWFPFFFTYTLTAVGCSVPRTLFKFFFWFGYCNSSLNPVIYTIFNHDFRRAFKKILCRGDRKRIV
The data set is described as follows: In vitro CEREP profiling, alpha2A (h) (antagonist radioligand). Format: binding. The following applies: test compound 10 uM.
Text: as §1

For a further data set, the target named is T7, GR (h) (Homo sapiens, UniProt P04150).
T7 construct: purchased Eurofins Cerep (SafetyScreen44), recognised from the panel format
T7 sequence (P04150 1-777): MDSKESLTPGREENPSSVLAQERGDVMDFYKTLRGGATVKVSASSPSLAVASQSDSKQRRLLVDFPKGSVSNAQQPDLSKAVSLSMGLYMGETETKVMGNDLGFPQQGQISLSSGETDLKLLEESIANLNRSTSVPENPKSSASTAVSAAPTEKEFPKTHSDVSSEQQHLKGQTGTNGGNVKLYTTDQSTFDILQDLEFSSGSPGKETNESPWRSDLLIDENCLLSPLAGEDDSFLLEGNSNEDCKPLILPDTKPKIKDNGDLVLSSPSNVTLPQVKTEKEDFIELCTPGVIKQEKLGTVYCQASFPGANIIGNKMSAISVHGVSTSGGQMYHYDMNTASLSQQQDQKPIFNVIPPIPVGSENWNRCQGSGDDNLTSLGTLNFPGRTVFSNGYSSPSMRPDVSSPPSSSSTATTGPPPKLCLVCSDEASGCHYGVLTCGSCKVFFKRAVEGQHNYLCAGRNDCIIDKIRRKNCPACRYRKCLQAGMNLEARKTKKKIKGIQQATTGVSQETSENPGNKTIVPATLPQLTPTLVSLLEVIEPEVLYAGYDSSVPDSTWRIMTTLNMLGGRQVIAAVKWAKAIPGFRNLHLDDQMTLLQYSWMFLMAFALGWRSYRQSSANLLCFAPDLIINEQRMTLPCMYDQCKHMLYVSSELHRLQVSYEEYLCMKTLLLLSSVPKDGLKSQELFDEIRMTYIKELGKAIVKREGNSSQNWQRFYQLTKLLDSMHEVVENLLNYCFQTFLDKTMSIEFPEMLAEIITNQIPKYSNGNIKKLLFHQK
In words: In vitro CEREP profiling, GR (h) (agonist radioligand). Format: binding. The following applies: test compound concentration 10 uM.
Text: as §1

The test system of the next data set is CYP. In words: CYP inhibition. It counts as in vitro ADME. Conditions: In vitro CYP inhibition pooled; for potency: potency class in words. The source says:
Supplement media-1.zip/CYP_Inhibition.csv, table | column: ic50; potency

A further data set relates to HeLa-ACE2 cells. Conditions: for perc_max_measured: highest measured response of the dose series; for perc_min_measured: lowest measured response of the dose series.
Another data set relates to AR(h). In words: In vitro CEREP profiling, AR(h) (agonist radioligand). Conditions: test compound concentration 10 uM. Format: binding, human.
Text: as §1

Where [3] appears, read: protocol HeLa-ACE2 cytotoxicity.

Where “and” joins values, the source holds several entries; their conditions need not be identical. Identical values can stand only once. Like-named read-outs stand apart in the source and are kept apart here.

T3 sequence (P43681 29-627 limits assumed): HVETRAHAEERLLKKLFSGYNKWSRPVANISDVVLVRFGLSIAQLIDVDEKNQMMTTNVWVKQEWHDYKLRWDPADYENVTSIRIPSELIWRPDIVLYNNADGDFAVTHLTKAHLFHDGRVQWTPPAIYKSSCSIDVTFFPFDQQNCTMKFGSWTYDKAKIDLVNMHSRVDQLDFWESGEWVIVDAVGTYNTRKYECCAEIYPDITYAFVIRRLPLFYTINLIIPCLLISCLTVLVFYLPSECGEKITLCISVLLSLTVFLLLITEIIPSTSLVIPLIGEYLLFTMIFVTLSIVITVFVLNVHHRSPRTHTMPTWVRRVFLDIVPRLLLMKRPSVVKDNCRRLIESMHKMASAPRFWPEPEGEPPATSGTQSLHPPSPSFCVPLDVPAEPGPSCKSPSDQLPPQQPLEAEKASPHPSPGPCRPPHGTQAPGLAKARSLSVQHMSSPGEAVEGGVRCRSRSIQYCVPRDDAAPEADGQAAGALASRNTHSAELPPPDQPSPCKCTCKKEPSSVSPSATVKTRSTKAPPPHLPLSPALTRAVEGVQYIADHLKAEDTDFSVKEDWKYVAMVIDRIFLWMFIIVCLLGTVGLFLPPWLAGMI
T3 sequence (P17787 26-502): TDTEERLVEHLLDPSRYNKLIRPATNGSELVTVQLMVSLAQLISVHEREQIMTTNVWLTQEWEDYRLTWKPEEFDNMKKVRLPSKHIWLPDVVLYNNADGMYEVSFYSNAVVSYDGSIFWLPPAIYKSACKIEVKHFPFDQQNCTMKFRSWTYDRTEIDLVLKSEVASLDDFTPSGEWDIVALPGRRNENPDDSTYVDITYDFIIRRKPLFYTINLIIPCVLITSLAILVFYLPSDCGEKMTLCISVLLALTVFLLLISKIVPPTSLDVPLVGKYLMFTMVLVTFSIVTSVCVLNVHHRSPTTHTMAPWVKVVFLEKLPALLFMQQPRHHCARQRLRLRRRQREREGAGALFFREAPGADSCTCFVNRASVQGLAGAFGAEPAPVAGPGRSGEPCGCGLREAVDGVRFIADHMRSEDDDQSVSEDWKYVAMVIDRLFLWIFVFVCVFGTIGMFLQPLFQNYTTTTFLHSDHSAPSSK
T1 sequence (P21554 whole entry): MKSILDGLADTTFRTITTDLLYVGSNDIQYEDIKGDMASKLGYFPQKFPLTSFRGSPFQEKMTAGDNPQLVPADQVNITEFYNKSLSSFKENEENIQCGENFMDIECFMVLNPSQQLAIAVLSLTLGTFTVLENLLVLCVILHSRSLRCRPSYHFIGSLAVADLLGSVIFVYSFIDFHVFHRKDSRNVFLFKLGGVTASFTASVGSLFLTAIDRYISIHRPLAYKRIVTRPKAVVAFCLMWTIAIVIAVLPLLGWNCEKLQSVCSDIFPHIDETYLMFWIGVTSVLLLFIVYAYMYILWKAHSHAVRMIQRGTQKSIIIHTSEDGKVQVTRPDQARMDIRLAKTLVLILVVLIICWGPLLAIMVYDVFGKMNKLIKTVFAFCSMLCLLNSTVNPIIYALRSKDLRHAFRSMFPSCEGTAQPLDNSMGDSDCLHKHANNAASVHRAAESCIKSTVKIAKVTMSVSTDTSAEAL

`CC(C)[C@H](Nc1ncnc2[nH]ccc12)c1ccc2c(c1)S(=O)(=O)CCC2` [ASAP-0008674]: the “perc_inhibition (% inhibition of the binding of a ligand specific for each target)” value on CB1 (h) is -13%; at 5-HT2A (h) it was 12%; in [1], 12%; in [2], 1%; on 5-HT2B (h), 54%; at 5-HT3 (h), 8%. Also, the “perc_inhibition (% inhibition of the binding of a ligand specific for each target)” value is given as 10% at alpha2A (h), 10% on GR (h) and 0% in the data set on AR(h). For the same compound, the IC50 (usually the point on the concentration scale where inhibition reaches its midpoint) in the data set on CYP (isoform 1A2) was > 50 µM; with CYP (isoform 2C9) it was 18.2 µM; in the data set with CYP (isoform 2C19), 15 µM; with CYP (isoform 2D6), > 50 µM; with CYP (isoform 3A4), 3.2 µM. For the same compound, the potency entry in the data set on CYP (isoform 1A2) was “weak”; in the data set with CYP (isoform 2C9), “weak”; with CYP (isoform 2C19), “weak”; with CYP (isoform 2D6), “weak”; in the data set with CYP (isoform 3A4), “moderate”. In addition, the CC50 (as a rule, the concentration at which the toxic effect on the cells reaches its halfway point) in the data set on HeLa-ACE2 cells (HeLa-ACE2 cytotoxicity) is > 20 µM. Also, the cc10 with HeLa-ACE2 cells (HeLa-ACE2 cytotoxicity) is > 20.0 µM. For the same compound, the perc_max_measured in the data set on HeLa-ACE2 cells (HeLa-ACE2 cytotoxicity) was 118.208% and 98.628%. The perc_min_measured in the data set on HeLa-ACE2 cells (HeLa-ACE2 cytotoxicity) is 91.836% and 85.869%.
Regarding `CNCc1cc(-c2cc3c(N[C@@H](c4ccc5c(c4)S(=O)(=O)CCC5)C(C)C)ncnc3[nH]2)co1` [ASAP-0011176], the “perc_inhibition (% inhibition of the binding of a ligand specific for each target)” value at CB1 (h) is listed as 3%; at 5-HT2A (h), 29%; in data set [1], -3%; in data set [2] it was 0%; on 5-HT2B (h) it was -11%; at 5-HT3 (h), 0%. The figures for the “perc_inhibition (% inhibition of the binding of a ligand specific for each target)” value on alpha2A (h), on GR (h) and in the data set with AR(h) were 15%, 21% and 10%, respectively. Moreover, the IC50 with CYP (isoform 1A2) is 49.3 µM; in the data set with CYP (isoform 2C9) it was 5.25 µM; in the data set on CYP (isoform 2C19), 22.6 µM; in the data set with CYP (isoform 2D6), 9.03 µM; in the data set on CYP (isoform 3A4) it was 1.81 µM. Moreover, the potency entry was “weak” in the data set on CYP (isoform 1A2); “moderate” in the data set on CYP (isoform 2C9); “weak” with CYP (isoform 2C19); “moderate” with CYP (isoform 2D6); “moderate-potent” in the data set with CYP (isoform 3A4). The CC50 with HeLa-ACE2 cells (HeLa-ACE2 cytotoxicity) and with HeLa-ACE2 cells (setting [3]) was > 20 µM each time. For the same compound, the cc10 with HeLa-ACE2 cells (HeLa-ACE2 cytotoxicity) and in the data set with HeLa-ACE2 cells (setting [3]) was > 20.0 µM throughout. Besides, the perc_max_measured is 120.991% in the data set on HeLa-ACE2 cells (HeLa-ACE2 cytotoxicity) and 106.042% in the data set with HeLa-ACE2 cells (setting [3]). Also, the results for the perc_min_measured in the data set on HeLa-ACE2 cells (HeLa-ACE2 cytotoxicity) and with HeLa-ACE2 cells (setting [3]) were 77.721% and 91.552%, respectively.
For `C[C@H](C(=O)O)[C@@H](NC(=O)c1ncnc2[nH]ccc12)c1ccc(Br)cc1` [ASAP-0014722], the “perc_inhibition (% inhibition of the binding of a ligand specific for each target)” value at CB1 (h) was -11%; at 5-HT2A (h), 1%; in data set [1], -12%; in data set [2] it was 0%; on 5-HT2B (h) it was -4%; at 5-HT3 (h) it was 2%. The “perc_inhibition (% inhibition of the binding of a ligand specific for each target)” value at alpha2A (h) came out at 3%; at GR (h), 3%; in the data set with AR(h), 12%. Also, the half-inhibitory concentration (IC50) was > 50 µM with CYP (isoform 1A2); 5.14 µM in the data set with CYP (isoform 2C9); > 50 µM with CYP (isoform 2C19); > 50 µM in the data set on CYP (isoform 2D6); > 50 µM in the data set with CYP (isoform 3A4). The potency entry with CYP (isoform 1A2) is on record as “weak”; in the data set with CYP (isoform 2C9) it was “moderate”; in the data set on CYP (isoform 2C19), “weak”; in the data set with CYP (isoform 2D6), “weak”; in the data set on CYP (isoform 3A4) it was “weak”. Moreover, the CC50 in the data set on HeLa-ACE2 cells (HeLa-ACE2 cytotoxicity) was > 20 µM. In addition, in the data set with HeLa-ACE2 cells (HeLa-ACE2 cytotoxicity), the cc10 is > 20.0 µM. Further, the perc_max_measured in the data set with HeLa-ACE2 cells (HeLa-ACE2 cytotoxicity) is 102.029% and 107.127%. Also, the perc_min_measured in the data set with HeLa-ACE2 cells (HeLa-ACE2 cytotoxicity) is 80.657% and 84.357%.
Consider `CC(C)[C@H](Nc1ncnc2[nH]c(-c3cnn(C)c3C#N)cc12)c1ccc2c(n1)OCCO2` [ASAP-0010715], for which the “perc_inhibition (% inhibition of the binding of a ligand specific for each target)” value at CB1 (h) is listed as 46%; on 5-HT2A (h), 15%; in data set [1] it was 9%; in data set [2], 2%; at 5-HT2B (h) it was 18%; at 5-HT3 (h) it was 6%. For the same compound, the entries for the “perc_inhibition (% inhibition of the binding of a ligand specific for each target)” value at alpha2A (h), at GR (h) and in the data set with AR(h) were 7%, 11% and -3%, respectively. Besides, the IC50 with CYP (isoform 1A2) is 35.2 µM; with CYP (isoform 2C9), 5.93 µM; in the data set on CYP (isoform 2C19), 16.9 µM; with CYP (isoform 2D6), 27.7 µM; in the data set on CYP (isoform 3A4), 3.69 µM. Moreover, the potency entry is “weak” in the data set with CYP (isoform 1A2); “moderate” in the data set on CYP (isoform 2C9); “weak” in the data set with CYP (isoform 2C19); “weak” in the data set on CYP (isoform 2D6); “moderate” with CYP (isoform 3A4). Further, in the data set on HeLa-ACE2 cells (HeLa-ACE2 cytotoxicity), the CC50 was 12.5 µM and > 20 µM. For the same compound, the perc_max_measured with HeLa-ACE2 cells (HeLa-ACE2 cytotoxicity) is 90.88% and 122.905% and 97.413%.

Values taken from paper doi:10.1101/2024.08.19.608619, “Discovery of potent SARS-CoV-2 nsp3 macrodomain inhibitors uncovers lack of translation to cellular antiviral response” (bioRxiv, 2024).
